{"source": "PubChem BioAssay AID1963440", "about": "(Molecular Pharmacology Branch, DTP, NCI, 2024)", "test_system": "NCI-H1417 complex spheroids, growth % test/control", "assay": "Anticancer human tumor NCI-H1417 cell line growth inhibition [Asc];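 for all read-outs here: spheroids exposed to compounds for 7 days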;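 for viability, T/C: 100% = DMSO vehicle control wells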", "details": "for IC50: curve of first compound; for viability, T/C: stronger effect = lower value", "summary_of_the_method": "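Complex spheroids combining tumor cells with HUVEC endothelial cells and human MSCs, at 37 degrees C, 5% CO2; agents tested alone or combined, half-log dilutions from at or near clinical Cmax, or 10 microM if Cmax unknown.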", "data": [{"compound": "Cc1nc(N2CCC3(CC2)COC(C)C3N)c(CO)nc1Sc1ccnc(N)c1Cl", "note": "(configuration not stated) + CNC(C)C(=O)NC1CN(S(=O)(=O)c2cccc(S(=O)(=O)N3CCC4CCC(C(=O)NC(c5ccccc5)c5ccccc5)N4C(=O)C(NC(=O)C(C)NC)C3)c2)CCC2CCC(C(=O)NC(c3ccccc3)c3ccccc3)N2C1=O", "values": [{"measurement": "IC50", "setting": "second compound 0.00316 µM", "result": "> 3", "unit": "µM"}, {"measurement": "IC50", "setting": "second compound 0.01 µM", "result": "> 3", "unit": "µM"}, {"measurement": "IC50", "setting": "second compound 0.0316 µM", "result": "> 3", "unit": "µM"}, {"measurement": "IC50", "setting": "second compound 0.1 µM", "result": "> 3", "unit": "µM"}, {"measurement": "IC50", "setting": "second compound 0.316 µM", "result": "> 3", "unit": "µM"}, {"measurement": "IC50", "setting": "second compound 1 µM", "result": "> 3", "unit": "µM"}, {"measurement": "viability, T/C", "setting": "second compound 0.00316 µM, first compound 0.00949 µM", "result": 99.4, "unit": "%"}, {"measurement": "viability, T/C", "setting": "second compound 0.00316 µM, first compound 0.03 µM", "result": 89, "unit": "%"}, {"measurement": "viability, T/C", "setting": "second compound 0.00316 µM, first compound 0.0949 µM", "result": 85.8, "unit": "%"}, {"measurement": "viability, T/C", "setting": "second compound 0.00316 µM, first compound 0.3 µM", "result": 81.9, "unit": "%"}, {"measurement": "viability, T/C", "setting": "second compound 0.00316 µM, first compound 0.949 µM", "result": 93.4, "unit": "%"}, {"measurement": "viability, T/C", "setting": "second compound 0.00316 µM, first compound 3 µM", "result": 92.6, "unit": "%"}, {"measurement": "viability, T/C", "setting": "second compound 0.01 µM, first compound 0.00949 µM", "result": 91.9, "unit": "%"}, {"measurement": "viability, T/C", "setting": "second compound 0.01 µM, first compound 0.03 µM", "result": 100, "unit": "%"}, {"measurement": "viability, T/C", "setting": "second compound 0.01 µM, first compound 0.0949 µM", "result": 89.3, "unit": "%"}, {"measurement": "viability, T/C", "setting": "second compound 0.01 µM, first compound 0.3 µM", "result": 87.8, "unit": "%"}, {"measurement": "viability, T/C", "setting": "second compound 0.01 µM, first compound 0.949 µM", "result": 96.9, "unit": "%"}, {"measurement": "viability, T/C", "setting": "second compound 0.01 µM, first compound 3 µM", "result": 84.1, "unit": "%"}, {"measurement": "viability, T/C", "setting": "second compound 0.0316 µM, first compound 0.00949 µM", "result": 93.9, "unit": "%"}, {"measurement": "viability, T/C", "setting": "second compound 0.0316 µM, first compound 0.03 µM", "result": 92.2, "unit": "%"}, {"measurement": "viability, T/C", "setting": "second compound 0.0316 µM, first compound 0.0949 µM", "result": 101, "unit": "%"}, {"measurement": "viability, T/C", "setting": "second compound 0.0316 µM, first compound 0.3 µM", "result": 83.6, "unit": "%"}, {"measurement": "viability, T/C", "setting": "second compound 0.0316 µM, first compound 0.949 µM", "result": 98.2, "unit": "%"}, {"measurement": "viability, T/C", "setting": "second compound 0.0316 µM, first compound 3 µM", "result": 79, "unit": "%"}, {"measurement": "viability, T/C", "setting": "second compound 0.1 µM, first compound 0.00949 µM", "result": 87.5, "unit": "%"}, {"measurement": "viability, T/C", "setting": "second compound 0.1 µM, first compound 0.03 µM", "result": 86.6, "unit": "%"}, {"measurement": "viability, T/C", "setting": "second compound 0.1 µM, first compound 0.0949 µM", "result": 91.7, "unit": "%"}, {"measurement": "viability, T/C", "setting": "second compound 0.1 µM, first compound 0.3 µM", "result": 86.2, "unit": "%"}, {"measurement": "viability, T/C", "setting": "second compound 0.1 µM, first compound 0.949 µM", "result": 86.9, "unit": "%"}, {"measurement": "viability, T/C", "setting": "second compound 0.1 µM, first compound 3 µM", "result": 86.2, "unit": "%"}, {"measurement": "viability, T/C", "setting": "second compound 0.316 µM, first compound 0.00949 µM", "result": 82.8, "unit": "%"}, {"measurement": "viability, T/C", "setting": "second compound 0.316 µM, first compound 0.03 µM", "result": 90.2, "unit": "%"}, {"measurement": "viability, T/C", "setting": "second compound 0.316 µM, first compound 0.0949 µM", "result": 88, "unit": "%"}, {"measurement": "viability, T/C", "setting": "second compound 0.316 µM, first compound 0.3 µM", "result": 88.8, "unit": "%"}, {"measurement": "viability, T/C", "setting": "second compound 0.316 µM, first compound 0.949 µM", "result": 84.1, "unit": "%"}, {"measurement": "viability, T/C", "setting": "second compound 0.316 µM, first compound 3 µM", "result": 94.2, "unit": "%"}, {"measurement": "viability, T/C", "setting": "second compound 1 µM, first compound 0.00949 µM", "result": 78.1, "unit": "%"}, {"measurement": "viability, T/C", "setting": "second compound 1 µM, first compound 0.03 µM", "result": 98.6, "unit": "%"}, {"measurement": "viability, T/C", "setting": "second compound 1 µM, first compound 0.0949 µM", "result": 90.2, "unit": "%"}, {"measurement": "viability, T/C", "setting": "second compound 1 µM, first compound 0.3 µM", "result": 89.8, "unit": "%"}, {"measurement": "viability, T/C", "setting": "second compound 1 µM, first compound 0.949 µM", "result": 83.7, "unit": "%"}, {"measurement": "viability, T/C", "setting": "second compound 1 µM, first compound 3 µM", "result": 87.7, "unit": "%"}]}]}
